Results taken from patent US8691865B2 (AbbVie Inc., priority 2008, dated 2014).
Read-outs that look alike come from different tables or passages of the source.

Biological target: human Cav2.2 (Homo sapiens, UniProt Q00975)
Assay: Assessment of calcium channel activity using FLIPR (Ca2+ influx in IMR32 cells)
Assay type: cell-based
How it was run: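 Human neuroblastoma IMR32 cells were seeded at 1−1.2×10^5 cells/well and cultured 48 h at 37 °C before FLIPR calcium influx measurement. Percent inhibition at each concentration was calculated against the no-inhibitor signal, and IC50 came from sigmoidal dose-response fits.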

[1] = read-out: IC50 (μM) or percent inhibition (* indicates 3 minute incubation, otherwise 60 minute), IC50, 60 minute pre-incubation with compound, IMR32 cells, 80 mM KCl depolarization

human Cav2.2, sequence (Q00975 whole entry): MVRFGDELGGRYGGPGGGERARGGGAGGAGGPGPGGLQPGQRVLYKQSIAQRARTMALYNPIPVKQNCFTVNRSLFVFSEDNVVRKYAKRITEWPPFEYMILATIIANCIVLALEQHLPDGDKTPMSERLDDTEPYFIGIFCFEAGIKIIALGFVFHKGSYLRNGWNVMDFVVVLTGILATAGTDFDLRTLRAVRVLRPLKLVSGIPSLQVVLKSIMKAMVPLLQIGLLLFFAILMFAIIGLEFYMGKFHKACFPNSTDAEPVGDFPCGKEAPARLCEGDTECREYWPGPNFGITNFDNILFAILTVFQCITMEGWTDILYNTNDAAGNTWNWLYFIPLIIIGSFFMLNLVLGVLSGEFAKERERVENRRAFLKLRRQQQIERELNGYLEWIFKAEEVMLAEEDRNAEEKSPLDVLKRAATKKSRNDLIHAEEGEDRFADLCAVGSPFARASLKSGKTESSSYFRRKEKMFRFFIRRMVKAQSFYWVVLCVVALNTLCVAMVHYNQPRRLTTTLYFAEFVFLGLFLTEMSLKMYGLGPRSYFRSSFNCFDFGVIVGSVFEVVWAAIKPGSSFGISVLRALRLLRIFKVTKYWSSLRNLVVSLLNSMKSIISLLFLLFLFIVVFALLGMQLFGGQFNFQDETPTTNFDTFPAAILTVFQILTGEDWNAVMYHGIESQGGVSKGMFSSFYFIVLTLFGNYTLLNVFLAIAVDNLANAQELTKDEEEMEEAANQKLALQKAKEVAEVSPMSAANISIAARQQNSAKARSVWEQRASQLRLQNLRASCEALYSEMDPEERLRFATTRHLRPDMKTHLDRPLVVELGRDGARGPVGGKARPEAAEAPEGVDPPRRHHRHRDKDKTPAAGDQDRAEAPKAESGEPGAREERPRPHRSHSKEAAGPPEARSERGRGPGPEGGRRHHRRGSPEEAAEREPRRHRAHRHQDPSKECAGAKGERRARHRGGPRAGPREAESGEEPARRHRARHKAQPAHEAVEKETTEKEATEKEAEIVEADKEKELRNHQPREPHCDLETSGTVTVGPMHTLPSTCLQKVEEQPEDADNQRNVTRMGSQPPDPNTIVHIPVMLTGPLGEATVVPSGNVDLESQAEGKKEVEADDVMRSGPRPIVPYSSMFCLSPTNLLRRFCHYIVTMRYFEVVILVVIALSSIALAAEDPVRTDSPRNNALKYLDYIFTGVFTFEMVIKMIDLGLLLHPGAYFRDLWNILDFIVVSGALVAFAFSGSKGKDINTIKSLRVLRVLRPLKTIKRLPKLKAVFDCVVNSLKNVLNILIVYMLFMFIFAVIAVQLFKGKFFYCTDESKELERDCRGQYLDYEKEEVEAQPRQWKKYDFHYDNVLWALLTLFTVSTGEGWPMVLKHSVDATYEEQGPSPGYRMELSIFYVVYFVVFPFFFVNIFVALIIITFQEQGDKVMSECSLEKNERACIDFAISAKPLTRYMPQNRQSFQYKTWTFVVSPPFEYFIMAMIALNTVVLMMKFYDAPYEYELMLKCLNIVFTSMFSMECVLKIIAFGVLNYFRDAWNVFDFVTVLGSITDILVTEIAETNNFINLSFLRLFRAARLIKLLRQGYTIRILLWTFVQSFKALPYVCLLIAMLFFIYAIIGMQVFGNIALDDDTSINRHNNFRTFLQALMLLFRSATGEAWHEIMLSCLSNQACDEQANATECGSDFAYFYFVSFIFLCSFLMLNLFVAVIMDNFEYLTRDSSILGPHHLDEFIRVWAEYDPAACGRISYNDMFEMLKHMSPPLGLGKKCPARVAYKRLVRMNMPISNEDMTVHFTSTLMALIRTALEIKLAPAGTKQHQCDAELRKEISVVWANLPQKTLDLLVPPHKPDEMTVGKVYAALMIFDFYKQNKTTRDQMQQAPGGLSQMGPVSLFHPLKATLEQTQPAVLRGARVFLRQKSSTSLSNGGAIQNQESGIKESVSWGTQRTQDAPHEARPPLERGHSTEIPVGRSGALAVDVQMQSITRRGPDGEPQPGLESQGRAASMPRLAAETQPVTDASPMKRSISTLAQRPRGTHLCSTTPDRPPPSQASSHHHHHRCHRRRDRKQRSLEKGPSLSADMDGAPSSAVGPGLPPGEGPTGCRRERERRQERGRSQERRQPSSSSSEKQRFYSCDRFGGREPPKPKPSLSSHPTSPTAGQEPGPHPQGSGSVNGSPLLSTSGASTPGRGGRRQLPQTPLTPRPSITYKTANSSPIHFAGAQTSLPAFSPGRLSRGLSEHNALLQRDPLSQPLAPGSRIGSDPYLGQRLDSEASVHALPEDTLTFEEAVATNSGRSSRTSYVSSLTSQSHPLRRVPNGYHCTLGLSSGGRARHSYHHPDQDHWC
human Cav2.2, sequence (P54289 25-956 partner limits assumed): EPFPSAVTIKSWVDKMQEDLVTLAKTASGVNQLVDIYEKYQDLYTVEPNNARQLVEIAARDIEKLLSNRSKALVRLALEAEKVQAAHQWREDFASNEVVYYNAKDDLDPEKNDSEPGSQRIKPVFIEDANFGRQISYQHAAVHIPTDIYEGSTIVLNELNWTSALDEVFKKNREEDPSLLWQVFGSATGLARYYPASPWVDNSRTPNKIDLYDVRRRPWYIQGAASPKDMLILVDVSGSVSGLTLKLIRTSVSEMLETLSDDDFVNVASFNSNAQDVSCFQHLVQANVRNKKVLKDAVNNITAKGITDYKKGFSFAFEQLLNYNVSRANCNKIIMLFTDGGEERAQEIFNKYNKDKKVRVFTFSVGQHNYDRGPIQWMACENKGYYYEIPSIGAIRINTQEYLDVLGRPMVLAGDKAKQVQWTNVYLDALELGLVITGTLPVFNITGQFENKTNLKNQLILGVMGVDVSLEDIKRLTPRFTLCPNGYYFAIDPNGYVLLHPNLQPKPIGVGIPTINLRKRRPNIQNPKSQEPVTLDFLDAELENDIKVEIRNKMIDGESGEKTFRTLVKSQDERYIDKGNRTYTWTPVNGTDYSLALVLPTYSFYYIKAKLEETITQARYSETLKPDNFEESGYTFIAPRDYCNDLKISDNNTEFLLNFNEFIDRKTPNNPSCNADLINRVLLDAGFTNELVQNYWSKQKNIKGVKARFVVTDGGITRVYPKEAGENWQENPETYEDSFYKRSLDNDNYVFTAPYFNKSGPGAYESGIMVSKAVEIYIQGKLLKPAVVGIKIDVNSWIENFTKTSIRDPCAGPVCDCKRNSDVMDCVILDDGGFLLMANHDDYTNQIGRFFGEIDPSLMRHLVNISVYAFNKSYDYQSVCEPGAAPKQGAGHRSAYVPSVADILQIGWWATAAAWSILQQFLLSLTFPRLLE
human Cav2.2, sequence (P54289 957-1103 partner limits assumed): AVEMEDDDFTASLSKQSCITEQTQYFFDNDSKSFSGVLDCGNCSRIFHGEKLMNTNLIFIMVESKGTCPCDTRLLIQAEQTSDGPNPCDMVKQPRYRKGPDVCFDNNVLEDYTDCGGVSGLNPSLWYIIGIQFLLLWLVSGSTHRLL
human Cav2.2, sequence (P54284 whole entry partner): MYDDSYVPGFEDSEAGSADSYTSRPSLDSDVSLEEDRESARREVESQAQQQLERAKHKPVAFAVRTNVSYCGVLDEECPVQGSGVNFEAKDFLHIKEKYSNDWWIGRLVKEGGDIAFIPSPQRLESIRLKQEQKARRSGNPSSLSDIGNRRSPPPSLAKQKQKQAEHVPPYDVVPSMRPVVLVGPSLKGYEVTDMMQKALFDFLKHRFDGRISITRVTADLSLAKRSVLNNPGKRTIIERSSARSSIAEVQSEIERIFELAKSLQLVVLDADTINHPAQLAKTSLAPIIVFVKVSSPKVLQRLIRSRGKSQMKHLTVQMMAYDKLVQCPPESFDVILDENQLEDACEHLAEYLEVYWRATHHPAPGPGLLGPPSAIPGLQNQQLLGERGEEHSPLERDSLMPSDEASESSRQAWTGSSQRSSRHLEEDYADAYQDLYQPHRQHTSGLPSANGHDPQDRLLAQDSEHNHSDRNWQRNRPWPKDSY

Compound | IC50 [µM] | IC50 [1] [µM]
CN[C@@H](CC(C)C)C(=O)N[C@H]1CC[C@@H]2CN(c3ccc(F)c(C(F)(F)F)c3)C[C@@H]21 [Example 621, N-{(3aR,4S,6aS)-2-[4-fluoro-3-(trifluoromethyl)phenyl]octahydrocyclopenta[c]pyrrol-4-yl}-N^2-methyl-L-leucinamide] | 0.99 | 
CCC[C@H](NC)C(=O)N(C)[C@H]1CC[C@@H]2CN(S(=O)(=O)c3ccc(C(F)(F)F)cc3)C[C@@H]21 [Example 438, N^1,N^2-dimethyl-N^1-((3aR,4S,6aS)-2-{[4-(trifluoromethyl)phenyl]sulfonyl}octahydrocyclopenta[c]pyrrol-4-yl)-L-norvalinamide] | 5.7 | 
CC(C)CC(=O)N[C@@H]1CC[C@H]2CN(Cc3ccccc3)C[C@H]21 [Example 236, N-[(3aS,4R,6aR)-2-benzyloctahydrocyclopenta[c]pyrrol-4-yl]-3-methylbutanamide] | > 30 | 
CN[C@H](C(=O)N[C@H]1CC[C@@H]2CN(c3cccc(C(F)(F)F)c3)C[C@@H]21)C(C)C [Example 757, N^2-methyl-N-{(3aR,4S,6aS)-2-[3-(trifluoromethyl)phenyl]octahydrocyclopenta[c]pyrrol-4-yl}-L-valinamide] | 1.13 | 
CCC[C@H](NC)C(=O)N[C@H]1CC[C@@H]2CN(Cc3ccc(C(F)(F)F)cc3)C[C@@H]21 [Example 377, N^2-methyl-N^1-{(3aR,4S,6aS)-2-[4-(trifluoromethyl)benzyl]octahydrocyclopenta[c]pyrrol-4-yl}-L-norvalinamide] |  | 13.3
O=C(N[C@H]1CC[C@@H]2CN(Cc3ccccc3)C[C@@H]21)C(c1ccccc1)C1CCCC1 (stereo partly drawn) [Example 34, N-[(3aR,4S,6aS)-2-benzyloctahydrocyclopenta[c]pyrrol-4-yl]-2-cyclopentyl-2-phenylacetamide] |  | 1.51
FC(F)(F)c1cccc(N2C[C@H]3CC[C@H](NCc4nc(-c5ccccc5)c[nH]4)[C@H]3C2)n1 [Example 746, (3aR,4S,6aS)-N-[(4-phenyl-1H-imidazol-2-yl)methyl]-2-[6-(trifluoromethyl)pyridin-2-yl]octahydrocyclopenta[c]pyrrol-4-amine] | 1.71 | 

The next lines start with the values.

IC50 [µM] | IC50 [1] [µM] | Compound
1.07 |  | CCCC(C(=O)NC1CCC2CN(Cc3ccc(F)cc3)CC21)N(C)C(=O)OC(C)(C)C (single isomer, unassigned) [Example 318]
1.79 |  | N[C@@H](CC1CCCCC1)C(=O)N[C@H]1CC[C@@H]2CN(S(=O)(=O)c3ccc(C(F)(F)F)cc3)C[C@@H]21 [Example 426, 3-cyclohexyl-N^1-((3aR,4S,6aS)-2-{[4-(trifluoromethyl)phenyl]sulfonyl}octahydrocyclopenta[c]pyrrol-4-yl)-L-alaninamide]
 | 4.59 | CN[C@H](CC(C)C)C(=O)N[C@@H]1CC[C@H]2CN(Cc3cccc(C(F)(F)F)c3)C[C@H]21 (relative stereo) [Example 163, N^2-methyl-N^1-{(3aS*,4R*,6aR*)-2-[3-(trifluoromethyl)benzyl]octahydrocyclopenta[c]pyrrol-4-yl}-D-leucinamide]
4 |  | FC(F)(F)c1cccc(N2C[C@H]3CC[C@H](NCc4c[nH]nn4)[C@H]3C2)n1 [Example 694, (3aR,4S,6aS)-N-(1H-1,2,3-triazol-4-ylmethyl)-2-[6-(trifluoromethyl)pyridin-2-yl]octahydrocyclopenta[c]pyrrol-4-amine]
0.65 |  | CN[C@@H](CC(C)C)C(=O)N[C@H]1CC[C@@H]2CN(c3ccccc3OC(F)(F)F)C[C@@H]21 [Example 699, N^2-methyl-N-{(3aR,4S,6aS)-2-[2-(trifluoromethoxy)phenyl]octahydrocyclopenta[c]pyrrol-4-yl}-L-leucinamide]
2.78 |  | Fc1ccc2[nH]c(CN[C@H]3CC[C@@H]4CN(c5cccc(OC(F)(F)F)c5)C[C@@H]43)cc2c1 [Example 715, (3aR,4S,6aS)-N-[(5-fluoro-1H-indol-2-yl)methyl]-2-[3-(trifluoromethoxy)phenyl]octahydrocyclopenta[c]pyrrol-4-amine]
